Experimental data reported in ChEMBL document CHEMBL1201862, “PubChem BioAssay data set” (2004).
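Results reflect a 48-hour exposure of cells in 96-well plates to compound at five concentrations. Here, GI50 denotes the concentration required for 50% inhibition of growth.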 The source made the active and inactive calls. Rule as the data show it: active = GI50 up to about 1.1 µM and inactive = higher.

Legend:
Assay in all cases: NCI anticancer screen, dose series, 48 h
BT-549 = system: BT-549
CAKI-1 = system: CAKI-1
HL-60 = system: HL-60
HOP-92 = system: HOP-92
Hs-578T = system: Hs-578T
K562 = system: K562
M14 = system: M14
NCI-H226 = system: NCI-H226
NCI-H23 = system: NCI-H23
NCI/ADR-RES = system: NCI/ADR-RES
RXF 393 = system: RXF 393
SK-MEL-28 = system: SK-MEL-28
SK-MEL-5 = system: SK-MEL-5
SK-OV-3 = system: SK-OV-3
SN12C = system: SN12C
SNB-19 = system: SNB-19
UACC-257 = system: UACC-257
MDA-N = system: MDA-N
RPMI-8226 = system: RPMI-8226

| Structure (SMILES) | GI50 (BT-549) | GI50 (CAKI-1) | GI50 (HL-60) | GI50 (HOP-92) | GI50 (Hs-578T) | GI50 (K562) | GI50 (M14) | GI50 (NCI-H226) | GI50 (NCI-H23) | GI50 (NCI/ADR-RES) | GI50 (RXF 393) | GI50 (SK-MEL-28) | GI50 (SK-MEL-5) | GI50 (SK-OV-3) | GI50 (SN12C) | GI50 (SNB-19) | GI50 (UACC-257) | GI50 (MDA-N) | GI50 (RPMI-8226) |
| --- | --- | --- | --- | --- | --- | --- | --- | --- | --- | --- | --- | --- | --- | --- | --- | --- | --- | --- | --- |
| CN(Cc1cnc2c(n1)C(N)=NN(N)N2)c1ccc(C(=O)NC(CCP(=O)(O)O)C(=O)O)cc1 (stereo not drawn) | 16 µM (inactive) | > 52.8 µM (inactive) | 0.252 µM (active) | > 100 µM (inactive) | > 100 µM (inactive) | > 100 µM (inactive) | 4.53 µM (inactive) | > 35.1 µM (inactive) | 14.9 µM (inactive) | 8.02 µM (inactive) | 6.22 µM (inactive) | > 85.7 µM (inactive) | 5.35 µM (inactive) | > 100 µM (inactive) | > 63.2 µM (inactive) | > 30.7 µM (inactive) | > 100 µM (inactive) | – | – |
| CC(C)(C)c1cc(-c2cc(C(C)(C)C)[nH]n2)[nH]n1 | > 100 µM (inactive) | > 100 µM (inactive) | 46.8 µM (inactive) | > 100 µM (inactive) | > 100 µM (inactive) | 47.5 µM (inactive) | > 100 µM (inactive) | > 100 µM (inactive) | > 100 µM (inactive) | – | > 100 µM (inactive) | > 100 µM (inactive) | > 100 µM (inactive) | > 100 µM (inactive) | > 100 µM (inactive) | > 100 µM (inactive) | > 100 µM (inactive) | > 100 µM (inactive) | > 100 µM (inactive) |
| Cc1ccc(/C=C2/NC(=S)SC2=O)cc1 | 22.6 µM (inactive) | 19.6 µM (inactive) | 27.4 µM (inactive) | 43.8 µM (inactive) | – | – | 33 µM (inactive) | 25.7 µM (inactive) | 20.7 µM (inactive) | 22.5 µM (inactive) | – | > 100 µM (inactive) | 32.1 µM (inactive) | 88.1 µM (inactive) | 31 µM (inactive) | 29.5 µM (inactive) | 31.4 µM (inactive) | – | – |
| CCOC(=O)CC1c2ccc(O)cc2OC(=O)C1c1ccc([N+](=O)[O-])cc1 (stereo not drawn) | – | 43 µM (inactive) | 34.1 µM (inactive) | 20.4 µM (inactive) | 46.7 µM (inactive) | 30.4 µM (inactive) | 21 µM (inactive) | 14.2 µM (inactive) | 27.7 µM (inactive) | 27 µM (inactive) | 16.9 µM (inactive) | 38 µM (inactive) | 15.4 µM (inactive) | 33.3 µM (inactive) | 21.8 µM (inactive) | 63.5 µM (inactive) | 28.8 µM (inactive) | 28.6 µM (inactive) | – |
| CC(C)(C)C1=C(Br)C(OC(=O)C(F)(F)F)(C(C)(C)C)OP1(=O)c1ccccc1 (stereo not drawn) | – | 0.0643 µM (active) | 24.8 µM (inactive) | 36.5 µM (inactive) | 23.7 µM (inactive) | 25.5 µM (inactive) | 36.1 µM (inactive) | 40.5 µM (inactive) | 33.7 µM (inactive) | 35.1 µM (inactive) | – | > 100 µM (inactive) | 65.3 µM (inactive) | 39.1 µM (inactive) | 39 µM (inactive) | 57.4 µM (inactive) | 72.9 µM (inactive) | 60.8 µM (inactive) | – |
| Cc1cn2cc(-c3cccs3)nc2s1 | > 100 µM (inactive) | > 100 µM (inactive) | 55.8 µM (inactive) | > 71.8 µM (inactive) | > 100 µM (inactive) | 99.3 µM (inactive) | > 78.3 µM (inactive) | > 24.6 µM (inactive) | > 75.5 µM (inactive) | – | > 100 µM (inactive) | > 100 µM (inactive) | > 61.8 µM (inactive) | > 100 µM (inactive) | > 100 µM (inactive) | > 100 µM (inactive) | > 85.9 µM (inactive) | > 72.6 µM (inactive) | > 100 µM (inactive) |
| C=C(C)C1CC/C(C)=C/CC[C@]2(C)O[C@H]2CC/C(COC(C)=O)=C\[C@@H]1O (stereo partly drawn) | > 50 µM (inactive) | > 50 µM (inactive) | 27.4 µM (inactive) | > 50 µM (inactive) | – | 11.1 µM (inactive) | – | > 50 µM (inactive) | > 50 µM (inactive) | 20.7 µM (inactive) | > 50 µM (inactive) | > 50 µM (inactive) | > 50 µM (inactive) | 31.1 µM (inactive) | > 50 µM (inactive) | > 50 µM (inactive) | > 50 µM (inactive) | – | > 50 µM (inactive) |
| Cc1ccc(-c2cc(-c3ccccc3)nc(N)n2)c(O)c1 | > 100 µM (inactive) | > 74.6 µM (inactive) | 2.22 µM (inactive) | > 64.1 µM (inactive) | – | 2.09 µM (inactive) | > 100 µM (inactive) | – | > 100 µM (inactive) | > 100 µM (inactive) | > 100 µM (inactive) | > 100 µM (inactive) | 6.46 µM (inactive) | > 75.7 µM (inactive) | > 100 µM (inactive) | 32.4 µM (inactive) | > 100 µM (inactive) | 4.78 µM (inactive) | 3.06 µM (inactive) |
| O=C1C2C3C=C4c5ccccc5N(c5ccccc5)C4(C2C(=O)N1c1ccc([N+](=O)[O-])cc1)[C@H]1C(=O)N(c2ccc([N+](=O)[O-])cc2)C(=O)[C@@H]31 (stereo partly drawn) | – | > 100 µM (inactive) | > 100 µM (inactive) | > 100 µM (inactive) | – | > 100 µM (inactive) | > 100 µM (inactive) | > 100 µM (inactive) | > 100 µM (inactive) | – | > 100 µM (inactive) | > 100 µM (inactive) | > 100 µM (inactive) | > 100 µM (inactive) | > 100 µM (inactive) | > 100 µM (inactive) | > 100 µM (inactive) | – | > 100 µM (inactive) |
| S=C(Nc1ccccc1)N(/N=C/C=C/c1ccccc1)c1nnc(-c2ccccc2)c(-c2ccccc2)n1 | – | 50.7 µM (inactive) | 22.4 µM (inactive) | 18.7 µM (inactive) | – | 36.6 µM (inactive) | 63.4 µM (inactive) | 24.3 µM (inactive) | 19.6 µM (inactive) | – | 50.9 µM (inactive) | 54.6 µM (inactive) | 30.8 µM (inactive) | > 100 µM (inactive) | > 100 µM (inactive) | > 100 µM (inactive) | 38.9 µM (inactive) | – | 26.1 µM (inactive) |
| [N-]=[N+]=C1CNC(=O)NC1=O | – | > 100 µM (inactive) | 34 µM (inactive) | > 100 µM (inactive) | > 100 µM (inactive) | > 100 µM (inactive) | 58.6 µM (inactive) | > 100 µM (inactive) | > 100 µM (inactive) | > 100 µM (inactive) | > 100 µM (inactive) | > 100 µM (inactive) | > 100 µM (inactive) | > 100 µM (inactive) | > 100 µM (inactive) | > 100 µM (inactive) | > 100 µM (inactive) | > 100 µM (inactive) | 28.8 µM (inactive) |
| Oc1ccc(Cl)cc1CN1CCN(Cc2cc(Cl)ccc2O)C1 | – | 1.88 µM (inactive) | 2.02 µM (inactive) | 1.15 µM (inactive) | 3.82 µM (inactive) | 1.39 µM (inactive) | 0.553 µM (active) | 1.39 µM (inactive) | 1.19 µM (inactive) | 0.152 µM (active) | 0.895 µM (active) | 1.65 µM (inactive) | 0.973 µM (active) | 2.3 µM (inactive) | 1.11 µM (active) | 2.86 µM (inactive) | 1.86 µM (inactive) | 1.79 µM (inactive) | 2.27 µM (inactive) |
| COc1ccc2oc(C(=O)N3CC(CCl)c4ccc([N+](=O)[O-])cc43)cc2c1 (stereo not drawn) | 42.3 µM (inactive) | 15.4 µM (inactive) | – | 26.1 µM (inactive) | 9.12 µM (inactive) | > 100 µM (inactive) | 89.9 µM (inactive) | 0.664 µM (active) | 73.8 µM (inactive) | 17.9 µM (inactive) | 13.4 µM (inactive) | > 100 µM (inactive) | > 100 µM (inactive) | 13.2 µM (inactive) | – | 25.2 µM (inactive) | > 100 µM (inactive) | – | > 100 µM (inactive) |
| ClC(Cl)(Cl)C1CCOC1n1nnc2ccccc21 (stereo not drawn) | 25.9 µM (inactive) | > 100 µM (inactive) | 11.9 µM (inactive) | – | 89.7 µM (inactive) | 24.1 µM (inactive) | > 100 µM (inactive) | > 100 µM (inactive) | 24.3 µM (inactive) | 42.2 µM (inactive) | > 100 µM (inactive) | – | 45.2 µM (inactive) | > 100 µM (inactive) | > 100 µM (inactive) | – | > 100 µM (inactive) | > 100 µM (inactive) | – |
| O=C(CC(C(=O)c1ccc(F)cc1)c1ccsc1)c1cccs1 (stereo not drawn) | – | > 100 µM (inactive) | 55.2 µM (inactive) | – | > 100 µM (inactive) | > 100 µM (inactive) | > 100 µM (inactive) | 58.1 µM (inactive) | 32.7 µM (inactive) | 96.4 µM (inactive) | – | > 100 µM (inactive) | 62.4 µM (inactive) | > 100 µM (inactive) | > 100 µM (inactive) | > 100 µM (inactive) | 70.3 µM (inactive) | 79.8 µM (inactive) | 37.6 µM (inactive) |
| Cc1ccc(O)cc1.Cc1cccc(O)c1.Cc1ccccc1O [CRESOL] | > 100 µM (inactive) | > 100 µM (inactive) | > 100 µM (inactive) | – | 4.75 µM (inactive) | > 100 µM (inactive) | > 100 µM (inactive) | 85.9 µM (inactive) | > 100 µM (inactive) | > 100 µM (inactive) | > 100 µM (inactive) | > 100 µM (inactive) | > 100 µM (inactive) | > 100 µM (inactive) | > 100 µM (inactive) | > 100 µM (inactive) | > 100 µM (inactive) | – | > 100 µM (inactive) |
